Assay results from US20050101657A1, “Androgen receptor antagonists” (Takeda Chemical Industries Ltd., priority 2001, published 2005).
Numbering of substitutions follows the chain as printed.

molecular target: T1, LNCaP type mutant androgen receptor (Homo sapiens, UniProt P10275, T878A); experiment: AR-binding inhibition test (LNCaP type); settings: radio labeled Mibolerone 3 nM; 4° C., 3 hours; dextran/charcoal method
T1 sequence (P10275 1-920 T878A): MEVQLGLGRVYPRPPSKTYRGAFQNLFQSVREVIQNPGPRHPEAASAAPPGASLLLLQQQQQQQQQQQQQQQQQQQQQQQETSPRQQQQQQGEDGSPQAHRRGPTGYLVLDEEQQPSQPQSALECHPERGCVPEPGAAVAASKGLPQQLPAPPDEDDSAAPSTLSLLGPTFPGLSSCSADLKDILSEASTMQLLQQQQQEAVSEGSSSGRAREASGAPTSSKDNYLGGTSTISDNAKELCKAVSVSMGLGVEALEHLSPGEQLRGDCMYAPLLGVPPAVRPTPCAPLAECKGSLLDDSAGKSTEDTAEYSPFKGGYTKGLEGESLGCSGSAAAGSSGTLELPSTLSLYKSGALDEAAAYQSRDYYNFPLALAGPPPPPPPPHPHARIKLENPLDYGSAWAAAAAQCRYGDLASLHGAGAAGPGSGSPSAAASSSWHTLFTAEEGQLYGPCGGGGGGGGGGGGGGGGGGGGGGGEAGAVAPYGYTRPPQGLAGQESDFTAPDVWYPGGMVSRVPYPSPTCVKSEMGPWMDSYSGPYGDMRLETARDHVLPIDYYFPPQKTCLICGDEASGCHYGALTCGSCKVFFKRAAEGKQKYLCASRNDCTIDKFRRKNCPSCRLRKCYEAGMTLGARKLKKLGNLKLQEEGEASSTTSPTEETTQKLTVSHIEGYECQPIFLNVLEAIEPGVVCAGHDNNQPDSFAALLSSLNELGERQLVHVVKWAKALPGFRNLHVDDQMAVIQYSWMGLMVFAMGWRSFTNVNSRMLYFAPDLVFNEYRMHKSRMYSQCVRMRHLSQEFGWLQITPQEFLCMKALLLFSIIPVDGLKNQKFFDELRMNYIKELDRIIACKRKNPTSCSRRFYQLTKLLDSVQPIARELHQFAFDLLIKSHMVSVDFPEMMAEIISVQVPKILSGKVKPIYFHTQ
Protocol: (§1) A solution of wild type or LNCaP type mutant androgen receptor, radio labeled Mibolerone (final concentration 3 nM) and a compound (final concentration 0.001 to 10 μM) were mixed. The mixture was incubated at 4° C. for 3 hours, and by the dextran/charcoal method, B (Bound) and F (Free) Mibolerone were separated. The radioactivity of B was measured and IC50 was calculated.

| IC50 | SMILES |
| --- | --- |
| 0.2 µM | CCOC(=O)c1c(C)[nH]c(C)c1-c1ccc([N+](=O)[O-])cc1 [Example 1, Ethyl 2,5-dimethyl-4-(4-nitrophenyl)-1H-pyrrole-3-carboxylate] |
| 0.0075 µM | CCOC(=O)c1c(-c2ccc([N+](=O)[O-])cc2)c(C)n(Cc2ccccc2)c1C [Example 4, Ethyl 1-benzyl-2,5-dimethyl-4-(4-nitrophenyl)-1H-pyrrole-3-carboxylate] |
| 0.068 µM | COC(=O)c1c(-c2ccc(C#N)cc2)c(C)n(Cc2ccc(C#N)cc2)c1C [Example 80, Methyl 1-(4-cyanobenzyl)-4-(4-cyanophenyl)-2,5-dimethyl-1H-pyrrole-3-carboxylate] |

molecular target: T2, mutation type AR (W741C) (Homo sapiens, UniProt P10275, W742C); experiment: AR transcription inhibition test (luciferase reporter); type: cell-based; settings: Cos-7 cells; test compound 1 μM; DHT 0.04 μM; 24 hours; luciferase activity; read-out: Inhibition rate (%) relative to the control
T2 construct: expressed in transfected cells; host or cells: Cos-7
T2 sequence (P10275 1-920 W742C): T1 sequence (P10275 1-920 T878A) with W742C, A878T
Protocol: Cos-7 cells were inoculated in a flask at 5,000,000 cells, and incubated in a culture solution (DMEM+10% Dextran Charcoal (DCC)-Fetal Bovine Serum (FBS) +2 mM glutamine) for 24 hours. A vector DNA in which a mutation type AR (W741C) gene was inserted and a vector DNA combined with luciferase gene downstream of the androgen responsive promoter were cotransfected by the liposome method. Two hours later, the culture medium was replaced and incubation was further carried out for 3 hours. DHT (Dihydrotestosterone) at a final concentration 0.04 μM and a test compound at a final concentration of 1 μM were added, and incubation was further carried out for 24 hours. By measuring luciferase activity, AR transcription inhibitory activity of the test compound was examined.

| inhibition at 1 µM | SMILES |
| --- | --- |
| 64.3% | CCOC(=O)c1c(C)[nH]c(C)c1-c1ccc([N+](=O)[O-])cc1 [Example 1, Ethyl 2,5-dimethyl-4-(4-nitrophenyl)-1H-pyrrole-3-carboxylate] |
| 20.1% | CCOC(=O)c1c(-c2ccc([N+](=O)[O-])cc2)c(C)n(Cc2ccccc2)c1C [Example 4, Ethyl 1-benzyl-2,5-dimethyl-4-(4-nitrophenyl)-1H-pyrrole-3-carboxylate] |
| 80.1% | COC(=O)c1c(-c2ccc(C#N)cc2)c(C)n(Cc2ccc(C#N)cc2)c1C [Example 80, Methyl 1-(4-cyanobenzyl)-4-(4-cyanophenyl)-2,5-dimethyl-1H-pyrrole-3-carboxylate] |

system: Human prostate cancer cells LNCaP-FGC; experiment: Inhibition of prostate-specific antigen (PSA) production in prostate cancer cells; type: cell-based; settings: 72 h, testosterone 1 ng/ml, three days after addition, ELISA, read-out: IC50, PSA production in culture supernatant
Protocol: Human prostate cancer cells LNCaP-FGC were seeded in a 24-well plate at a concentration of 40,000 cells/ml/well or in a 96-well plate at a concentration of 5000 cells/100 μl/well. On the following day, testosterone (final concentration 1 ng/ml) and a compound (final concentration 0.01 to 10 μM) were added. Three days after the addition, the concentration of PSA in the supernatant of the culture solution was measured by ELISA, and IC50 was calculated.

| IC50 | SMILES |
| --- | --- |
| 0.392 µM | CCOC(=O)c1c(C)[nH]c(C)c1-c1ccc([N+](=O)[O-])cc1 [Example 1, Ethyl 2,5-dimethyl-4-(4-nitrophenyl)-1H-pyrrole-3-carboxylate] |
| 0.087 µM | CCOC(=O)c1c(-c2ccc([N+](=O)[O-])cc2)c(C)n(Cc2ccccc2)c1C [Example 4, Ethyl 1-benzyl-2,5-dimethyl-4-(4-nitrophenyl)-1H-pyrrole-3-carboxylate] |
| 0.034 µM | COC(=O)c1c(-c2ccc(C#N)cc2)c(C)n(Cc2ccc(C#N)cc2)c1C [Example 80, Methyl 1-(4-cyanobenzyl)-4-(4-cyanophenyl)-2,5-dimethyl-1H-pyrrole-3-carboxylate] |
| 0.823 µM | CC(O)(CS(=O)(=O)c1ccc(F)cc1)C(=O)Nc1ccc(C#N)c(C(F)(F)F)c1 (stereo not shown) [Bicalutamide, bicalutamide, reference compound] |

molecular target: T3, wild type androgen receptor (Homo sapiens, UniProt P10275); experiment: AR-binding inhibition test (wild type); settings: radio labeled Mibolerone 3 nM; 4° C., 3 hours; dextran/charcoal method
T3 sequence (P10275 1-920): T1 sequence (P10275 1-920 T878A) with A878T
Protocol: as §1

| IC50 | SMILES |
| --- | --- |
| 0.19 µM | CCOC(=O)c1c(C)[nH]c(C)c1-c1ccc([N+](=O)[O-])cc1 [Example 1, Ethyl 2,5-dimethyl-4-(4-nitrophenyl)-1H-pyrrole-3-carboxylate] |
| 0.0078 µM | CCOC(=O)c1c(-c2ccc([N+](=O)[O-])cc2)c(C)n(Cc2ccccc2)c1C [Example 4, Ethyl 1-benzyl-2,5-dimethyl-4-(4-nitrophenyl)-1H-pyrrole-3-carboxylate] |
| 0.04 µM | COC(=O)c1c(-c2ccc(C#N)cc2)c(C)n(Cc2ccc(C#N)cc2)c1C [Example 80, Methyl 1-(4-cyanobenzyl)-4-(4-cyanophenyl)-2,5-dimethyl-1H-pyrrole-3-carboxylate] |
